Measurements as given in US20260150798A1, “METHODS AND COMPOSITIONS FOR IMPROVED PLANT REGENERATION FROM MICROSPORE-DERIVED EMBRYOS” (Monsanto Technology LLC, priority 2022, published 2026).
Entries after “also recorded” stand apart in the source; their conditions may differ.

Test system: microspore-derived embryos from 10 proprietary canola lines
Assay: Culture-free maturation and regeneration of microspore-derived embryos in soil, canola
Format: in vivo
Details: 5 mg/L added to MDE Maturation Medium, about 1 to about 24 hours before transfer to soil
Experimental: The optimal time to dilute the microspore-derived embryos to a concentration of about 200 to about 400 embryos per plate containing 15 mL medium is about 15 days to about 20 days after the beginning microspore culture initiation (days after culture) (DAC). At this stage, the embryos are green, individually distinguishable with the naked eye, and the majority are in the torpedo stage of development. During the dilution step the embryogenesis induction medium (NLN13) is replaced with MDE Maturation Medium. The microspore-derived embryos were diluted by transferring about 200 to about 400 embryos to a new plate containing 15 mL of MDE Maturation Medium. If the original plates have a starting concentration of about 200 embryos per plate or less, then the media of the original plate is replaced with MDE Maturation Medium without embryo dilution. Following dilution and/or media replacement, plates were returned to 100 μmol fluorescent light for a 16 hour photoperiod, 25° C. day and night with an orbital shaker set to 60 RPM, and cultured to about 28 to about 30 DAC to reach a matured cotyledon stage before transferring to a solid regeneration medium. […] Regeneration rate was measured after 28 days of incubation. Microspore-derived embryos from 10 proprietary canola lines were analyzed in a series of protocols to identify optimized conditions for culture-free maturation and regeneration. […]

SMILES: O=C(O)CCCc1c[nH]c2ccccc12 [IBA, indole-3-butyric acid]
- effect on rooting, plantlet survival and establishment in soil: accelerates rooting and increases plantlet survival and establishment in soil; also recorded: improves rooting
